Counter-ions that a name gives are not always drawn.
Tested on: ATGL-KO iPSCs
Test: High throughput iPSC chemical screening, Oil Red O (ORO) lipid accumulation; on Z-score: test concentration or dose not given here
Format: cell-based, mouse
Settings: not given

Compared with CN1CCc2cccc3c2[C@H]1Cc1ccc(O)c(O)c1-3.CN1CCc2cccc3c2[C@H]1Cc1ccc(O)c(O)c1-3.Cl.Cl.O, C[C@]12CC[C@@H](O)C[C@H]1CC[C@@H]1[C@@H]2CC[C@]2(C)C(=O)CC[C@@H]12 [3-alpha-Hydroxy-5-beta-androstan-17-one] is higher in Z-score: −0.2622 for the first, −0.187 for the second.

First: O=C(O)C1CCCNC1 (racemic) [(±)-Nipecotic acid]
Second: CC(=C(CCO)SSCC1CCCO1)N(C=O)Cc1cnc(C)nc1N (stereo in doubt) [Fursultiamine Hydrochloride]
The Z-score of the first is higher: 0.6655 for the first, −0.696 for the second.

Same assay, conditions: glycolytic switch compounds

Going from CN1CCN(C(c2ccccc2)c2ccc(Cl)cc2)CC1 (centres unmarked) [(1-[(4-Chlorophenyl)phenyl-methyl]-4-methylpiperazine)] to CN(C)c1nc(N(C)C)nc(N(C)C)n1 [Altretamine], the “Rank in normalized ORO score from screen” value rises from 720 to 814.

Same assay, conditions: normalized ORO level vs DMSO-treated cells; compound present during 7 days differentiation, 96-well; negative = decrease in lipid accumulation

Compared with COc1ccc2c(c1)[C@]13CCCC[C@@H]1[C@H](C2)N(C)CC3, COc1ccc2c(c1OC)CN1CCc3cc4c(cc3C1C2)OCO4 (centres unmarked) [(d,l)-Tetrahydroberberine] is higher in Z-score: −0.8776 for the first, 3.2577 for the second.

First: COc1cc2c(cc1OC)C(C)NCC2.Cl (centres unmarked)
Second: COc1ccc(CC2c3cc(OC)c(OC)cc3CCN2C)cc1OC (racemic) [Laudanosine (R,S)]
The Z-score of the first is higher: 0.4756 for the first, −0.5493 for the second.

First: Cc1ccc(Cl)c(Nc2ccccc2C(=O)O)c1Cl
Second: O=C(O)COC(=O)Cc1ccccc1Nc1c(Cl)cccc1Cl [Aceclofenac]
The Z-score of the first is lower: −1.2044 for the first, −0.5442 for the second.

First: CC(C)NCC(O)c1cc(O)cc(O)c1.CC(C)NCC(O)c1cc(O)cc(O)c1.O=S(=O)(O)O (centres unmarked)
Second: CC(C)NC[C@@H](O)c1ccc(O)c(O)c1.O=C(O)C(O)C(O)C(=O)O [(+)-Isoproterenol (+)-bitartrate salt]
The Z-score of the first is higher: −0.3842 for the first, −0.728 for the second.

Going from O=C(O)Cc1cc(I)c(Oc2ccc(O)c(I)c2)c(I)c1 to COc1ccc(-c2cc(=O)c3c(O)cc(O)cc3o2)cc1 [Acacetin], the Z-score rises from −0.9554 to 0.4211.

First: CN(N=O)C(=O)N[C@H]1C(O)O[C@H](CO)[C@@H](O)[C@@H]1O (mixture of isomers) [Streptozotocin]
Second: CC(=O)NC1[C@@H](O)OC(CO)[C@@H](O)[C@H]1O[C@H](C)C(=O)O (stereo in doubt) [Muramic acid, N-acetyl]
The Z-score of the first is lower: 0.0088 for the first, 1.128 for the second.

Compared with Cl.NCC(O)c1ccc(O)cc1 (racemic) [(+,−)-Octopamine hydrochloride], CNCC(O)c1ccc(O)cc1 (racemic) [(+,−)-Synephrine] is lower in Z-score: 0.9737 for the first, −1.0448 for the second.

Going from CN(Cc1cnc2nc(N)nc(N)c2n1)c1ccc(C(=O)N[C@@H](CCC(=O)O)C(=O)O)cc1 (racemic) [Amethopterin (R,S)] to COc1ccc2c(c1)c(CC(=O)OCC(=O)O)c(C)n2C(=O)c1ccc(Cl)cc1 [Acemetacin], the Z-score falls from 15.6786 to −0.9005.

First: CC(=O)NC(CC(=O)O)C(=O)O (racemic) [Aspartic acid, N-acetyl (R,S)]
Second: Nc1c(O)cccc1C(=O)CC(N)C(=O)O (racemic) [Kynurenine, 3-hydroxy (R,S)]
The Z-score of the first is higher: 0.7559 for the first, 0.1567 for the second.

First: NCC(CC(=O)O)c1ccc(Cl)cc1 (racemic) [Baclofen (R,S)]
Second: Nc1ccc(C(=O)NCC(=O)O)cc1 [Aminohippuric acid]
The Z-score of the first is higher: 0.07861 for the first, −1.1341 for the second.

First: O.Oc1cc(O)c2c(c1)OC(c1ccc(O)c(O)c1)C(O)C2 (racemic) [Catechin-(+,−) hydrate]
Second: CC(C)NCC(O)c1ccc(O)c(O)c1.Cl (single isomer, unassigned; (-)) [(−)-Isoproterenol hydrochloride]
The Z-score of the first is lower: −0.9777 for the first, 4.267 for the second.

First: OCC(O)CN1CCN(c2ccccc2)CC1 (racemic) [Dropropizine (R,S)]
Second: CN1CCN(C(c2ccccc2)c2ccc(Cl)cc2)CC1 (centres unmarked) [(1-[(4-Chlorophenyl)phenyl-methyl]-4-methylpiperazine)]
The Z-score of the first is higher: 0.6396 for the first, 0.241 for the second.

First: Nc1c2c(nc3ccccc13)CCCC2O.O=C(O)/C=C\C(=O)O (racemic) [Hydroxytacrine maleate (R,S)]
Second: CN1CCC2(C)c3cc(O)ccc3N(C)C12.O=C(O)/C=C/C(=O)O (single isomer, unassigned; (-)) [(−)-Eseroline fumarate salt]
The Z-score of the first is lower: −0.525 for the first, −0.478 for the second.

Compared with COCCc1ccc(OCC(O)CNC(C)C)cc1.COCCc1ccc(OCC(O)CNC(C)C)cc1.O=C(O)C(O)C(O)C(=O)O (racemic) [Metoprolol-(+,−) (+)-tartrate salt], CC(C)NC[C@@H](O)COc1ccc(CC(N)=O)cc1 [(R)-(+)-Atenolol] is higher in Z-score: −0.4304 for the first, 0.9856 for the second.

First: CC(=O)NC1CCSC1=O (racemic) [N-Acetyl-DL-homocysteine Thiolactone]
Second: CC(=O)Nc1nnc(S(N)(=O)=O)s1 [Acetazolamide]
The Z-score of the first is lower: 0.1772 for the first, 0.8773 for the second.

First: Nc1ccccc1S(N)(=O)=O [2-Aminobenzenesulfonamide]
Second: CC(=O)c1cc2ccccc2oc1=O [3-Acetylcoumarin]
The Z-score of the first is lower: −1.9389 for the first, −0.8473 for the second.

First: Clc1cnccn1 [2-Chloropyrazine]
Second: c1coc(CNc2ncnc3nc[nH]c23)c1 [6-Furfurylaminopurine]
The Z-score of the first is lower: −0.5863 for the first, 0.2192 for the second.

Going from CC(=O)Nc1cc2ccccc2oc1=O [3-Acetamidocoumarin] to CC(=O)CC(c1ccc([N+](=O)[O-])cc1)c1c(O)c2ccccc2oc1=O (centres unmarked) [Acenocoumarol], the Z-score falls from 0.06786 to −1.4804.

First: CN1C2CC(=O)CC1C(O)C2 (centres unmarked) [6-Hydroxytropinone]
Second: CC[C@H]1[C@@H]2C[C@H]3[C@@H]4N(C)c5ccccc5[C@]45C[C@@H]([C@H]2[C@H]5O)N3[C@@H]1O [Ajmaline]
The Z-score of the first is higher: 0.54 for the first, −0.937 for the second.

Compared with CC(C)(C)NC[C@@H](O)COc1cccc2c1CCCC2=O.Cl [(+)-Levobunolol hydrochloride], CC(C)(C)NC[C@H](O)COc1cccc2c1CCCC2=O.Cl [(−)-Levobunolol hydrochloride] is lower in Z-score: −0.1813 for the first, −0.5665 for the second.

Going from COc1ccc2cc([C@@H](C)C(=O)[O-])ccc2c1.[Na+] [(R)-Naproxen sodium salt] to CC(C)NC[C@@H](O)COc1cccc2ccccc12.Cl [(R)-Propranolol hydrochloride], the Z-score falls from 2.243 to −0.4494.

Compared with N[C@H]1CONC1=O [(S)-(−)-Cycloserine], NC(=O)NC1NC(=O)NC1=O (centres unmarked) [Allantoin] is higher in Z-score: −0.4402 for the first, 0.8256 for the second.

First: C[C@@H]1CCC[C@H](C)N1.Cl [(cis-) Nanophine]
Second: Nc1c(Br)cc(Br)cc1CN[C@H]1CC[C@H](O)CC1 [Ambroxol hydrochloride]
The Z-score of the first is lower: −1.4074 for the first, −0.9433 for the second.

Going from CCCC(=O)Nc1ccc(OCC(O)CNC(C)C)c(C(C)=O)c1 (centres unmarked) [Acebutolol hydrochloride] to C=CCc1ccccc1OCC(O)CNC(C)C (centres unmarked) [Alprenolol hydrochloride], the Z-score rises from 0.4578 to 0.9239.

First: CC(=O)Nc1ccc(O)cc1 [Acetaminophen]
Second: CC(=O)c1ccc(S(=O)(=O)NC(=O)NC2CCCCC2)cc1 [Acetohexamide]
The Z-score of the first is lower: −0.6512 for the first, 0.3584 for the second.

Going from CC(=O)c1ccc2c(c1)N(CCCN(C)C)c1ccccc1S2.O=C(O)/C=C\C(=O)O [Acetopromazine maleate salt] to CC(=O)Oc1ccccc1C(=O)Oc1ccccc1C(=O)O [Acetylsalicylsalicylic acid], the Z-score falls from −0.5926 to −1.3067.

Compared with CCN1C[C@]2(COC)[C@H](O)C[C@H](OC)[C@@]34[C@@H]5C[C@@]6(O)[C@H](OC(=O)c7ccccc7)[C@@H]5[C@@](OC(C)=O)([C@@H]([C@H](OC)[C@H]23)[C@@H]14)[C@@H](O)[C@@H]6OC [Aconitine], CCC(=O)OCC(=O)[C@@]1(OC(=O)CC)[C@H](C)C[C@H]2[C@H]3[C@H]([C@@H](O)C[C@@]21C)[C@@]1(C)C=CC(=O)C=C1C[C@H]3Cl [Alclometasone dipropionate] is higher in Z-score: 0.7907 for the first, 0.9375 for the second.

Compared with Nc1nc2c(ncn2COCCO)c(=O)[nH]1 [Acyclovir], Cn1c(=O)c2[nH]cnc2n(C)c1=O [Aminophylline] is lower in Z-score: −0.0091 for the first, −1.0552 for the second.

First: NC12CC3CC(CC(C3)C1)C2.NC12CC3CC(CC(C3)C1)C2.O=C(O)/C=C/C(=O)O [Adamantamine fumarate]
Second: CC(=O)OCC(=O)[C@H]1CC[C@H]2[C@@H]3CC[C@H]4C[C@H](O)CC[C@]4(C)[C@H]3C(=O)C[C@]12C [Alfadolone acetate]
The Z-score of the first is higher: 0.2085 for the first, −0.4554 for the second.

First: CCN(CC)CCOC(=O)C(c1ccccc1)c1ccccc1 [Adiphenine hydrochloride]
Second: Cc1c(N(C)C)c(=O)n(-c2ccccc2)n1C [Amidopyrine]
The Z-score of the first is higher: 0.801 for the first, 0.347 for the second.

Going from C[C@]12CCC(=O)C=C1CC[C@@H]1[C@@H]2C(=O)C[C@]2(C)C(=O)CC[C@@H]12 [Adrenosterone] to COC(=O)C1=CO[C@@H](C)[C@H]2CN3CCc4c([nH]c5ccccc45)[C@@H]3C[C@H]12.Cl [Ajmalicine hydrochloride], the Z-score rises from −1.025 to −0.8989.

Compared with CCCSc1ccc2nc(NC(=O)OC)[nH]c2c1 [Albendazole], COc1cc2nc(N(C)CCCNC(=O)C3CCCO3)nc(N)c2cc1OC (centres unmarked) [Alfuzosin hydrochloride] is lower in Z-score: 41.6509 for the first, 0.4534 for the second.

Compared with C=CC[N@@+]12CC[C@@]34c5ccccc5N5/C=C6/[C@H]7C[C@H]8[C@@]9(CC[N@@+]8(CC=C)C/C7=C/CO)c7ccccc7N(/C=C(/[C@@H](C[C@@H]31)/C(=C\CO)C2)[C@H]54)[C@@H]69.[Cl-].[Cl-] [Alcuronium chloride], NCC[C@H](O)C(=O)N[C@@H]1C[C@H](N)[C@@H](O[C@H]2O[C@H](CN)[C@@H](O)[C@H](O)[C@H]2O)[C@H](O)[C@H]1O[C@H]1O[C@H](CO)[C@@H](O)[C@H](N)[C@H]1O [Amikacin hydrate] is higher in Z-score: 0.354 for the first, 2.444 for the second.

Compared with CCCCC(CC)CNC(=N)NC(=N)NCCCCCCNC(=N)NC(=N)NCC(CC)CCCC (centres unmarked) [Alexidine dihydrochloride], CCCCC[C@H](O)/C=C/[C@H]1[C@H](O)CC(=O)[C@@H]1CCCCCCC(=O)O [Alprostadil] is lower in Z-score: 43.2376 for the first, −0.9154 for the second.

First: C=CCSCC1Nc2cc(Cl)c(S(N)(=O)=O)cc2S(=O)(=O)N1 (centres unmarked) [Althiazide]
Second: N=C(N)NC(=O)c1nc(Cl)c(N)nc1N [Amiloride hydrochloride dihydrate]
The Z-score of the first is lower: 0.2816 for the first, 1.955 for the second.

Compound CN(C)c1nc(N(C)C)nc(N(C)C)n1 [Altretamine] has a Z-score of 0.5601.
